Activity calls are given as the source filed them. The rule behind the calls is not given here.
The molecules below were run on HCT-116 (assay: Antiproliferative activity against human HCT116 cells assessed as inhibition of proliferation measured after 24 hrs by CCK-8 assay). Settings: HCT-116, 24 h.
Format: functional, cell-based

| Compound | IC50 [µM] |
| --- | --- |
| CC(=O)O[C@H]1C(=O)[C@@]2(C)[C@H]([C@H](OC(=O)c3ccccc3)[C@]3(O)C[C@H](OC(=O)[C@H](O)[C@@H](NC(=O)c4ccccc4)c4ccccc4)C(C)=C1C3(C)C)[C@]1(OC(C)=O)CO[C@@H]1C[C@@H]2O [PACLITAXEL] | 0.024 |
| COc1ccc(/C=C\c2cc(OC)c(OC)c(OC)c2)cc1O [COMBRETASTATIN A4] | 0.0158 |

These molecules were tested on HCT-116 (assay: Anti-tumor activity against human HCT-116 cells xenografted in BALB/c mouse assessed as inhibition of tumor growth at 7 mg/kg, ip thrice a week for three weeks). Settings: time 3.0 weeks.
Format: functional, organism-based

| Compound | Activity |
| --- | --- |
| CC(=O)O[C@H]1C(=O)[C@@]2(C)[C@H]([C@H](OC(=O)c3ccccc3)[C@]3(O)C[C@H](OC(=O)[C@H](O)[C@@H](NC(=O)c4ccccc4)c4ccccc4)C(C)=C1C3(C)C)[C@]1(OC(C)=O)CO[C@@H]1C[C@@H]2O [PACLITAXEL] | Active |

Each molecule was assayed on HCT-116 (assay: Cytotoxicity against human HCT-116 cells assessed as growth inhibition measured after 48 hrs by CCK-8 assay). Settings: not given.
Format: functional

| Compound | GI50 [µM] |
| --- | --- |
| COc1cc(C(=O)/C(C)=C/c2c[nH]c3ccc(Cl)cc23)cc(OC)c1OC | 0.07 |
| COc1cc(C(=O)/C(C)=C/c2c[nH]c3ccc(Br)cc23)cc(OC)c1OC | > 8 |
| COc1cc(C(=O)/C(C)=C/c2c[nH]c3ccncc23)cc(OC)c1OC | 1.08 |
| COc1cccc2c1CC/C(=C\c1c[nH]c3ccccc13)C2=O | > 10 |
| CC/C(=C\c1c[nH]c2ccccc12)C(=O)c1cc(OC)c(OC)c(OC)c1 | 0.043 |
| COC(=O)c1ccc2c(/C=C(\C)C(=O)c3cc(OC)c(OC)c(OC)c3)c[nH]c2c1 | 0.536 |
| COc1cccc(C(=O)/C(C)=C/c2c[nH]c3ccccc23)c1 | 0.348 |
| COc1cncc(C(=O)/C(C)=C/c2c[nH]c3ccccc23)c1 | 0.24 |
| COc1cc(C(=O)/C(C)=C/c2c[nH]c3ccccc23)cc2c1OCO2 | 0.061 |
| COc1cc(C(=O)/C(C)=C/c2csc3ccccc23)cc(OC)c1OC | 0.2 |
| COc1cc(C(=O)/C(C)=C/c2c[nH]c3ccc(C)cc23)cc(OC)c1OC | 0.071 |
| COc1cc(C(=O)/C(C)=C/c2c[nH]c3cc(C)ccc23)cc(OC)c1OC | 0.046 |
| COc1cc(C(=O)/C(C)=C/c2c[nH]c3ccc([N+](=O)[O-])cc23)cc(OC)c1OC | 0.074 |
| COc1ccc2c(/C=C(\C)C(=O)c3cc(OC)c(OC)c(OC)c3)c[nH]c2c1 | 0.074 |
| COc1cc(C(=O)/C(C)=C/c2c[nH]c3cc([N+](=O)[O-])ccc23)cc(OC)c1OC | 0.076 |
| COc1cc(C(=O)/C(C)=C/c2c[nH]c3c(C)cccc23)cc(OC)c1OC | 0.107 |

| Compound | GI50 [µM] |
| --- | --- |
| COc1cc(C(=O)/C(C)=C/c2c[nH]c3ccc(F)cc23)cc(OC)c1OC | 0.029 |
| COc1cc(C(=O)/C(C)=C/c2c[nH]c3c([N+](=O)[O-])cccc23)cc(OC)c1OC | 0.091 |
| COc1cc(C(=O)/C(C)=C/c2cnn3ccccc23)cc(OC)c1OC | 0.079 |
| COc1cc(C(=O)/C(C)=C/c2c[nH]c3cc(N)ccc23)cc(OC)c1OC | 0.069 |
| COc1cc(C(=O)/C(C)=C/c2c[nH]c3cccc(C)c23)cc(OC)c1OC | 0.602 |
| COc1cc(C(=O)/C(C)=C/c2cnc3ccccn23)cc(OC)c1OC | 0.071 |
| COc1cc(C(=O)/C(C)=C/c2c[nH]c3ccccc23)cc(OC)c1OC | 0.00099 |
| C/C(=C\c1c[nH]c2ccccc12)C(=O)c1ccccc1 | > 15 |
| COc1cc(C(=O)/C(C)=C/c2c[nH]c3cnccc23)cc(OC)c1OC | 0.821 |
| COc1cc(OC)cc(C(=O)/C(C)=C/c2c[nH]c3ccccc23)c1 | 0.065 |
| COc1cc(C(=O)/C(C)=C/c2c[nH]c3cc(C(=O)O)ccc23)cc(OC)c1OC | > 10 |
| O=C(/C=C/c1c[nH]c2ccccc12)c1ccccc1 | > 10 |
| COc1cc(C(=O)/C(C)=C/c2c[nH]c3cccnc23)cc(OC)c1OC | 0.059 |
| COc1cc(C(=O)/C(C)=C/c2c[nH]c3ncccc23)cc(OC)c1OC | 0.049 |
| COc1ccc(C(=O)/C(C)=C/c2c[nH]c3ccccc23)cc1OC | 0.074 |
